Assay results reported in the supplement of paper PMC4862054.

How the values were obtained:
Conditions in all cases: incubation time: 72 h
Hs578T [1] = assay: normalised response (% of control), CellTiter-Glo; higher = more viable cells (100 = DMSO, 0 = benzethonium chloride kill control)
Outline: (§1)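 After 72 h with compound in 384-well plates, breast cancer cell lines seeded as 20 µl suspension were read for CellTox Green fluorescence at 485/520 nm. CellTiter-Glo luminescence was then read after 10 min at room temperature. Compound was present at 5 concentrations in 10-fold steps over a 10,000-fold range set per compound, and plates were normalised to 0.1 % DMSO (100) and a positive kill control (0). Values are normalised signals, each at a single concentration.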

MDA-MB-436 [2] = assay: as above
Outline: as §1

MFM-223 [3] = assay: as above
Outline: as §1

HCC1143 [4] = assay: as above
Outline: as §1

MCF-10A [5] = assay: as above
Outline: as §1

DU-4475 [6] = assay: as above
Outline: as §1

HCC1937 [7] = assay: as above
Outline: as §1

HCC1599 [8] = assay: as above
Outline: as §1

MDA-MB-231 [9] = assay: as above
Outline: as §1

HDQ-P1 [10] = assay: as above
Outline: as §1

BT-474 [11] = assay: as above
Outline: as §1

CAL-85-1 [12] = assay: as above
Outline: as §1

BT-549 [13] = assay: as above
Outline: as §1

SK-BR-3 = assay: as above
Outline: as §1

CAL-148 [14] = assay: as above
Outline: as §1

CAL-51 [15] = assay: as above
Outline: as §1

MDA-MB-468 [16] = assay: as above
Outline: as §1

MDA-MB-453 [17] = assay: as above
Outline: as §1

CAL-120 [18] = assay: as above
Outline: as §1

Hs578T [19] = assay: normalised response (% of control), CellTox Green; higher = less cell death (100 = DMSO, 0 = benzethonium chloride kill control)
Outline: as §1

MDA-MB-436 [20] = assay: as above
Outline: as §1

MFM-223 [21] = assay: as above
Outline: as §1

HCC1143 [22] = assay: as above
Outline: as §1

MCF-10A [23] = assay: as above
Outline: as §1

DU-4475 [24] = assay: as above
Outline: as §1

HCC1937 [25] = assay: as above
Outline: as §1

HCC1599 [26] = assay: as above
Outline: as §1

MDA-MB-231 [27] = assay: as above
Outline: as §1

HDQ-P1 [28] = assay: as above
Outline: as §1

BT-474 [29] = assay: as above
Outline: as §1

CAL-85-1 [30] = assay: as above
Outline: as §1

BT-549 [31] = assay: as above
Outline: as §1

CAL-148 [32] = assay: as above
Outline: as §1

CAL-51 [33] = assay: as above
Outline: as §1

MDA-MB-468 [34] = assay: as above
Outline: as §1

MDA-MB-453 [35] = assay: as above
Outline: as §1

CAL-120 [36] = assay: as above
Outline: as §1

Structure (SMILES) | normalised response (Hs578T [1]) | normalised response (MDA-MB-436 [2]) | normalised response (MFM-223 [3]) | normalised response (HCC1143 [4]) | normalised response (MCF-10A [5]) | normalised response (DU-4475 [6]) | normalised response (HCC1937 [7]) | normalised response (HCC1599 [8]) | normalised response (MDA-MB-231 [9]) | normalised response (HDQ-P1 [10]) | normalised response (BT-474 [11]) | normalised response (CAL-85-1 [12]) | normalised response (BT-549 [13]) | normalised response (SK-BR-3) | normalised response (CAL-148 [14]) | normalised response (CAL-51 [15]) | normalised response (MDA-MB-468 [16]) | normalised response (MDA-MB-453 [17]) | normalised response (CAL-120 [18]) | normalised response (Hs578T [19]) | normalised response (MDA-MB-436 [20]) | normalised response (MFM-223 [21]) | normalised response (HCC1143 [22]) | normalised response (MCF-10A [23]) | normalised response (DU-4475 [24]) | normalised response (HCC1937 [25]) | normalised response (HCC1599 [26]) | normalised response (MDA-MB-231 [27]) | normalised response (HDQ-P1 [28]) | normalised response (BT-474 [29]) | normalised response (CAL-85-1 [30]) | normalised response (BT-549 [31]) | normalised response (CAL-148 [32]) | normalised response (CAL-51 [33]) | normalised response (MDA-MB-468 [34]) | normalised response (MDA-MB-453 [35]) | normalised response (CAL-120 [36])
NS(=O)(=O)OC[C@@H]1C[C@@H](n2ccc3c(N[C@H]4CCc5ccccc54)ncnc32)C[C@@H]1O [Pevonedistat] (100 nM) | 98.7% | 82.9% | 79.1% | 90.1% | 113% | 68.8% | 96.3% | 75.6% | 118% | 102% | 114% | 77.8% | 73.2% | 35.6% | 120% | 51.5% | 56.2% | 88.9% | 91.1% | 107% | 102% | 65.2% | 120% | 108% | 97.8% | 119% | 104% | 119% | 99.8% | 102% | 81.5% | 106% | 94.7% | 36.4% | 128% | 112% | 102%
CN(C)C[C@@H]1CCn2cc(c3ccccc32)C2=C(C(=O)NC2=O)c2cn(c3ccccc23)CCO1 [Ruboxistaurin] (100 nM) | 98% | 98% | 99.8% | 94.7% | 89.3% | 95.5% | 95.1% | 105% | 96.1% | 99.3% | 99.5% | 96.6% | 102% | 93% | 94.5% | 105% | 93.8% | 105% | 92.7% | 66.2% | 79.8% | 103% | 99.5% | 95.6% | 99.3% | 90% | 96.2% | 112% | 102% | 98.9% | 109% | 109% | 102% | 101% | 141% | 92.7% | 103%
O=C1NC(=O)[C@@H](c2cn3c4c(cccc24)CCC3)[C@@H]1c1c[nH]c2ccccc12 [Tivantinib] (10 nM) | 92.6% | 102% | 99.6% | 97.8% | 103% | 104% | 97.6% | 105% | 103% | 100% | 104% | 99.2% | 98.3% | 99.4% | 98.4% | 106% | 99.6% | 85% | 96.3% | 110% | 90.1% | 98.9% | 105% | 84.5% | 100% | 106% | 103% | 105% | 109% | 97.8% | 102% | 104% | 78.8% | 102% | 131% | 106% | 103%
CC[C@]1(O)C[C@H]2CN(CCc3c([nH]c4ccccc34)[C@@](C(=O)OC)(c3cc4c(cc3OC)N(C=O)[C@H]3[C@@](O)(C(=O)OC)[C@H](OC(C)=O)[C@]5(CC)C=CCN6CC[C@]43[C@@H]65)C2)C1 [Vincristine] (10 nM) | 82.6% | 70.8% | 90.8% | 53.5% | 60.5% | 86.3% | 75.7% | 63.5% | 76.7% | 71% | 71% | 30.6% | 38.2% | 17.8% | 64.6% | 86.8% | 20.9% | 70.6% | 66.8% | 88.5% | 56% | 94.7% | 98.8% | 51.6% | 98.7% | 93.3% | 90.7% | 53.4% | 44.8% | 76.7% | 45% | 77.1% | 71.5% | 73.2% | -5.1% | 87.5% | 93.9%
